Laboratory results: ChEMBL document CHEMBL2163249, “Exploration of natural compounds as sources of new bifunctional scaffolds targeting cholinesterases and beta amyloid aggregation: the case of chelerythrine” (Bioorg Med Chem, 2012)

What was measured:
[1] = target: Acetylcholinesterase (Electrophorus electricus) (UniProt O42275); conditions: at 2 mg/mL
Description: Inhibition of electric eel AChE at 2 mg/ml by Ellman's method

[2] = target: Cholinesterase (Equus caballus) (UniProt P81908); conditions: at 2 mg/mL
Sequence of Cholinesterase (Equus caballus) (P81908 whole entry): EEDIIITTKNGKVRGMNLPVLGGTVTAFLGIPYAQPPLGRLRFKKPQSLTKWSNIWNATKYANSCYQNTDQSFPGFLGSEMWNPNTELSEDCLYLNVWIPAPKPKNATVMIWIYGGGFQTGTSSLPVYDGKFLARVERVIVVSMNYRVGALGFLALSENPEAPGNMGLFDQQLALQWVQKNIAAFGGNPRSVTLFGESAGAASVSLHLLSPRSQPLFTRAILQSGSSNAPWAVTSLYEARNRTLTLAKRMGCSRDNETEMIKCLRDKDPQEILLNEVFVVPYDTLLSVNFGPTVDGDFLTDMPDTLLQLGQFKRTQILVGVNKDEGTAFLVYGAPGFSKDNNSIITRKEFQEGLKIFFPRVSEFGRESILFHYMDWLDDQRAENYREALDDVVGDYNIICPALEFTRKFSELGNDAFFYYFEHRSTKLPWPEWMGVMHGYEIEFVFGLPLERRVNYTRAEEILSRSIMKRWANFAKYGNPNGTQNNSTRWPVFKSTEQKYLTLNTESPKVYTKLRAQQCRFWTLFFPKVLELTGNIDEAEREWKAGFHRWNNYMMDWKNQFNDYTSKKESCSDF
Description: Inhibition of horse BChE at 2 mg/ml by Ellman's method

Sequence of Acetylcholinesterase (Electrophorus electricus) (O42275 24-633 limits assumed): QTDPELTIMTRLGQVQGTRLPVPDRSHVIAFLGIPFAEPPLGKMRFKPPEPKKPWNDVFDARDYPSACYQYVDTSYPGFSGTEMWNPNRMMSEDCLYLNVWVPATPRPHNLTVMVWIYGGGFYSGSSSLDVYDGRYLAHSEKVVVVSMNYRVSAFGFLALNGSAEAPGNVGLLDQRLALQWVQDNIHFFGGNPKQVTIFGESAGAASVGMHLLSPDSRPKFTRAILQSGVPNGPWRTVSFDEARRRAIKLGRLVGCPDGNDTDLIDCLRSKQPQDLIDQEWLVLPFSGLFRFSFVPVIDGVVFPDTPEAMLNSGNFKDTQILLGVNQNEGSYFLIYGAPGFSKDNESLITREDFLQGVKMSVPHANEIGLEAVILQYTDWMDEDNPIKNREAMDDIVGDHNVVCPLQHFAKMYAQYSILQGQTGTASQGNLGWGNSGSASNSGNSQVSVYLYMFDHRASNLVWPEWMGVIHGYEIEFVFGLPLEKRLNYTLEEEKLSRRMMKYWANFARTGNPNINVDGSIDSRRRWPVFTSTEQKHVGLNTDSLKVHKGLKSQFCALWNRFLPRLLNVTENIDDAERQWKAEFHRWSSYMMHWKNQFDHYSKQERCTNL

Row | SMILES | inhibition [1] [%] | inhibition [2] [%]
1 | O=C1c2c(O)cc(O)cc2O[C@H](c2ccc(O)c(O)c2)[C@H]1O | 17.8 | 0.97
2 | O=C(/C=C/c1ccc(O)c(O)c1)OCCc1ccccc1 | -8.88 | 17.7
3 | CN1Cc2c(ccc3c2OCO3)[C@@H]2[C@H]1c1cc3c(cc1C[C@@H]2O)OCO3 | 29.8 | 6.72
4 | CC(C)C[C@H]1C(=O)N2CCC[C@H]2[C@]2(O)O[C@](NC(=O)[C@@H]3C=C4c5cccc6[nH]c(Br)c(c56)C[C@H]4N(C)C3)(C(C)C)C(=O)N12 | -0.33 | 9.94
5 | O=C1Cc2c([nH]c3ccc(Br)cc23)-c2ccccc2N1 | -7.55 | -1
6 | C[C@H]1[C@H](OC(=O)CCC(=O)O)O[C@@H]2O[C@@]3(C)CC[C@H]4[C@H](C)CC[C@@H]1[C@@]24OO3 | -5.55 | 4.77
7 | N#C[C@H](O[C@@H]1O[C@H](CO[C@@H]2O[C@H](CO)[C@@H](O)[C@H](O)[C@H]2O)[C@@H](O)[C@H](O)[C@H]1O)c1ccccc1 | 0.78 | 5.7
8 | CC[C@H](C)/C=C(C)/C=C/C1=CC2=C(Cl)C(=O)[C@](C)(OC(C)=O)C(=O)C2=CO1 | 3.54 | 6.21
9 | C=C1[C@H]2C[C@@]3([C@@H]1O)[C@@H](CC2=O)[C@]12[C@@H]4C[C@H]3[C@H]1N(CC)C[C@]4(C)CC[C@@H]2O | 26.3 | 1.01
10 | C=C[C@]12CN(C)[C@@H]3[C@H]4CO[C@H](C[C@H]41)[C@]1(C(=O)Nc4ccccc41)[C@@H]32 | 6.89 | 31.1
11 | O=c1cc(-c2ccccc2)oc2cc(O)cc(O)c12 | 14.6 | 2.93
12 | COC1=C(N)C(=O)c2nc(-c3nc(C(=O)O)c(C)c(-c4ccc(OC)c(OC)c4O)c3N)ccc2C1=O | -2.66 | -5.44
13 | C=C1[C@@H](C)[C@H]2[C@H](Cc3ccccc3)NC(=O)[C@]23OC(=O)/C=C/[C@H](O)CCC[C@@H](C)C/C=C/[C@H]3[C@@H]1O | -2.03 | 8.94
14 | CCCCCCCCCCCCCC(=O)O[C@@H]1[C@@H](C)[C@@]2(O)[C@@H](C=C(CO)C[C@]3(O)C(=O)C(C)=C[C@@H]23)[C@@H]2C(C)(C)[C@]12OC(C)=O | 19.6 | -6.35
15 | C=C[C@](C)(O)CC[C@@H]1[C@@]2(C)CCCC(C)(C)[C@@H]2CC[C@@]1(C)O | 3.08 | -2.61
16 | COc1cc(O)c2c(=O)c(O)c(-c3ccc(O)c(O)c3)oc2c1 | 23.7 | 3.5
17 | CCn1cc(C(=O)O)c(=O)c2ccc(C)nc21 | 0.82 | -8.73
18 | O=C(/C=C/c1ccc(O)c(O)c1)O[C@@H]1C[C@](O)(C(=O)O)C[C@@H](O)[C@H]1O | 10.8 | 4.8
19 | COc1cc(/C=C/c2ccccc2)oc(=O)c1 | -0.87 | -0.13
20 | CO[C@H]1/C=C/O[C@@]2(C)Oc3c(C)c(O)c4c(O)c(cc(O)c4c3C2=O)NC(=O)/C(C)=C\C=C\[C@H](C)[C@H](O)[C@@H](C)[C@@H](O)[C@@H](C)[C@H](OC(C)=O)[C@@H]1C | -6.18 | -3.13
21 | CN1CCc2cc(O)c(O)cc2C1Cc1ccc(O)c(O)c1 (stereo not given) | 28.1 | 24.1
22 | O=C1C[C@@H](c2ccc(O)cc2)Oc2cc(O)cc(O)c21 | 7.24 | 0.68
23 | COc1ccc2c3c4n(c2c1)[C@H](C=C(C)C)OOC(C)(C)C[C@@H]4N1C(=O)[C@@H]2CCCN2C(=O)[C@]1(O)[C@H]3O | 1.5 | 18
24 | COc1c(O)cc(O)c2c(=O)cc(-c3ccccc3)oc12 | -1.48 | -5.86
25 | C[N+]1([O-])[C@@H]2CC[C@H]1C[C@H](OC(=O)C(CO)c1ccccc1)C2 (stereo not given in full) | 25.9 | -2.78

Row | SMILES | inhibition [1] [%] | inhibition [2] [%]
26 | O=C(/C=C/c1ccc(O)c(O)c1)c1ccc(O)cc1O | 10.1 | -0.63
27 | O=c1c(O)c(-c2cc(O)c(O)c(O)c2)oc2cc(O)cc(O)c12 | 4.65 | -3.14
28 | CCCC[C@@H](C)[C@@H](OC(=O)C[C@@H](CC(=O)O)C(=O)O)[C@H](C[C@@H](C)CCCCCC[C@@H](O)C[C@H](O)[C@H](C)N)OC(=O)C[C@@H](CC(=O)O)C(=O)O | -8.37 | 15.1
29 | C=CCc1ccc(O)c(-c2ccc(O)c(CC=C)c2)c1 | -3.48 | 7.62
30 | N[C@@H](Cn1ccc(=O)c(O)c1)C(=O)O | 7.74 | 11.2
31 | O=C(O)c1cc(N(Cc2ccccc2O)Cc2cc(O)ccc2O)ccc1O | 2.35 | 17.7
32 | O=C1C=C2C(=CCOC2O)O1 (stereo not given) | 5.33 | -1.78
33 | CO[C@H]1C=C2CCN(C)[C@H]2[C@@H]2c3cc4c(cc3C(=O)O[C@@H]21)OCO4 | 25.8 | -2.26
34 | O=C(/C=C/c1ccc(O)c(O)c1)c1ccc(O[C@@H]2O[C@H](CO)[C@@H](O)[C@H](O)[C@H]2O)c(O)c1O | 22.2 | 2.03
35 | COc1cc2c(cc1O)CCN[C@H]2C | 10.8 | -4.77
36 | O=c1c(O)c(-c2ccc(O)cc2O)oc2cc(O)cc(O)c12 | 18.1 | -3.98
37 | CSC(=S)NCc1c[nH]c2ccccc12 | -0.26 | -5.64
38 | COc1cc([C@@H]2c3cc4c(cc3[C@H](O)[C@H]3COC(=O)[C@@H]23)OCO4)cc(OC)c1OC | 27.1 | -2.7
39 | COc1ccc(-c2coc3cc(O)ccc3c2=O)cc1 | 1.62 | 0.57
40 | c1cc2c(cc1[C@H]1OC[C@@H]3[C@H]1CO[C@H]3c1ccc3c(c1)OCO3)OCO2 | 4.7 | -3.5
41 | CN1[C@@H]2CC[C@H]1C[C@@H](OC(=O)[C@H](CO)c1ccccc1)C2 | 15.5 | 3.5
42 | COc1ccc2cc1Oc1ccc(cc1)C[C@H]1c3cc(c(OC)cc3CCN1C)Oc1c(OC)c(OC)cc3c1[C@H](C2)N(C)CC3 | 15.5 | -1.1
43 | C=C[C@@](C)(/C=C/c1ccc(O)cc1)CCC=C(C)C | -7.92 | 13.4
44 | COc1cc2c(cc1OC)[C@H]1[C@@H](C)c3ccc(OC)c(OC)c3CN1CC2 | 13.9 | -0.53
45 | O=c1cc(-c2ccc(O)cc2)oc2cc(O)cc(O)c12 | 18.4 | 4.5
46 | C[C@@H]1O[C@@H](Oc2c(-c3ccc(O)c(O)c3)oc3cc(O)cc(O)c3c2=O)[C@H](O)[C@H](O)[C@H]1O | 0.25 | -6.56
47 | CCC[C@@H]1C[C@@H](C(=O)N[C@@H]([C@H]2O[C@H](SC)[C@H](O)[C@@H](O)[C@H]2O)[C@@H](C)O)N(C)C1 | -3.63 | -2.36
48 | C[C@H]1O[C@@H](Oc2c(-c3cc(O)c(O)c(O)c3)oc3cc(O)cc(O)c3c2=O)[C@@H](O)[C@@H](O)[C@@H]1O | 20.9 | -2.1
49 | C[C@@]12C(=O)OC(=O)[C@]1(C)[C@H]1CC[C@@H]2O1 | -7.81 | -2.13
50 | CC1(C)[C@@H](O)CC[C@]2(C)[C@H]3C(=O)C=C4[C@@H]5C[C@@](C)(C(=O)O)CC[C@]5(C)CC[C@@]4(C)[C@]3(C)CC[C@@H]12 | -3.12 | 4.46
